ChEMBL document CHEMBL3217743, “Reduction of acyl glucuronidation in a series of acidic 11-hydroxysteroid dehydrogenase type 1 (11-HSD1) inhibitors: the discovery of AZD6925” (Medchemcomm, 2012)

Columns and labels:
[1] = Clearance in rat hepatocytes measured per 10^6 cells; type: ADME, cell-based, Hepatocyte; conditions: read-out: CLH
[2] = Fraction unbound in rat plasma by equilibrium dialysis technique; type: ADME, cell-free
[3] = Octanol-buffer partition coefficient, log D of the compound at pH 7.4 after 30 mins by shake-flask method; type: physicochemical
[4] = Clearance in rat; type: ADME, organism-based; conditions: in vivo
in vivo = conditions: rat
[5] = Drug excretion in bile duct cannulated rat urine assessed as compound remaining by HPLC analysis; type: ADME, tissue-based; conditions: read-out: Stability
[6] = Drug excretion in bile duct cannulated rat bile assessed as ratio of glucuronidated to oxidized compound level by HPLC analysis; type: ADME, tissue-based; conditions: in vivo
[7] = Drug metabolism in dog hepatocytes assessed as ratio of glucuronidated to oxidized compound level by LC-MS/MS analysis; type: ADME, cell-based, Canis lupus familiaris, Hepatocyte
[8] = Inhibition of N-terminal 6-His-tagged dog full length 11beta-HSD1 assessed as conversion of cortisone to cortisol after 25 mins by HTRF assay; design: species or system Canis lupus familiaris
[9] = Drug excretion in bile duct cannulated rat urine assessed as ratio of glucuronidated to oxidized compound level by HPLC analysis; type: ADME; conditions: in vivo
[10] = Drug metabolism in rat hepatocytes assessed as ratio of glucuronidated to oxidized compound level by LC-MS/MS analysis; type: ADME, cell-based, Hepatocyte
[11] = Inhibition of N-terminal 6-His-tagged cynomolgus monkey full length 11beta-HSD1 assessed as conversion of cortisone to cortisol after 25 mins by HTRF assay; design: species or system Macaca fascicularis
[12] = Drug metabolism in human hepatocytes assessed as ratio of glucuronidated to oxidized compound level by LC-MS/MS analysis; type: ADME, cell-based, Hepatocyte
[13] = Apparent permeability from apical to basolateral side in human Caco2 cells; type: ADME, cell-based; conditions: Caco-2

hepatocyte CLint [1] | fraction unbound [2] | logD at 0.5 h [3] | clearance [4] | bioavailability (in vivo) | dose excreted [5] | Ratio [6] | Ratio [7] | IC50 [8] | Ratio [9] | Ratio [10] | IC50 [11] | Ratio [12] | Papp A→B [13] | Compound
3 µL/min/1e6 cells | 0.012 | 1.1 | 3 mL/min/kg | 52% |  |  |  |  |  |  |  |  |  | CCCSc1nc(N2CCC(C(=O)O)C2)ccc1C(=O)NC1CCCCC1 (configuration not stated)
7 µL/min/1e6 cells | 0.005 | 3.4 | 9 mL/min/kg | 94% |  |  |  |  |  |  |  |  |  | O=C(N[C@H]1C2CC3CC1C[C@](OC(F)F)(C3)C2)c1ccc(N2C[C@@H]3[C@H](C2)[C@H]3C(=O)O)nc1SC1CCCC1
< 2 µL/min/1e6 cells | 0.025 | 1.8 | 2 mL/min/kg | 80% |  |  |  |  |  |  |  |  |  | CCCSc1nc(N2C[C@@H]3[C@H](C2)[C@H]3C(=O)O)ccc1C(=O)NC1CCCCC1
< 2 µL/min/1e6 cells | 0.01 | 1.7 | 2 mL/min/kg | 96% |  |  |  |  |  |  |  |  |  | CCCSc1nc(N2CC[C@H](CC(=O)O)C2)ccc1C(=O)NC1CCCCC1
4 µL/min/1e6 cells | 0.04 | 1.5 | 43 mL/min/kg | 57% |  |  |  |  |  |  |  |  |  | O=C(N[C@H]1C2CC3CC1C[C@](O)(C3)C2)c1ccc(N2C[C@@H]3[C@H](C2)[C@H]3C(=O)O)nc1SC1CCCC1
< 2 µL/min/1e6 cells | 0.018 |  |  | 66% | 4% | 7.5 | 4.1 | 3.77 µM | 2.4 | 2.1 | 0.029 µM | 6 |  | CCCSc1nc(N2CCC[C@@H](CC(=O)O)C2)ccc1C(=O)NC1CCCCC1 [AZD-4017]
22 µL/min/1e6 cells | 0.004 | 3.3 | 9 mL/min/kg | 84% |  |  |  |  |  |  |  |  |  | CCCSc1nc(N2CCCC(C(C)(C)C(=O)O)C2)ccc1C(=O)NC1CCCCC1 (configuration not stated)
< 2 µL/min/1e6 cells | 0.108 | 0.8 | 42 mL/min/kg | 48% |  |  |  |  |  |  |  |  |  | CCCSc1nc(N2C[C@@H]3[C@H](C2)[C@H]3C(=O)O)ccc1C(=O)N[C@H]1C2CC3CC1C[C@](O)(C3)C2
9 µL/min/1e6 cells | 0.006 | 2.4 | 31 mL/min/kg | 21% |  |  |  |  |  |  |  |  |  | CCCSc1nc(N2CCC[C@@H](Cc3nnn[nH]3)C2)ccc1C(=O)NC1CCCCC1
15 µL/min/1e6 cells | 0.002 | 3.5 | 8 mL/min/kg | 71% |  |  |  |  |  |  |  |  |  | CCCSc1nc(N2CCCC(C3(C(=O)O)CC3)C2)ccc1C(=O)NC1CCCCC1 (configuration not stated)
20 µL/min/1e6 cells | 0.034 | 1.2 | 18 mL/min/kg | 3% |  |  |  |  |  |  |  |  | 2 ×10⁻⁶ cm/s | O=C(O)[C@H]1[C@@H]2CN(c3ccc(C(=O)N4CCC(c5cccnc5)C4)c(SC4CCCC4)n3)C[C@@H]21 (some centres not stated)
38 µL/min/1e6 cells | 0.017 | 1.6 | 35 mL/min/kg | 5% |  |  |  |  |  |  |  |  |  | CCCSc1nc(N2CCC[C@@H](CC(=O)NS(C)(=O)=O)C2)ccc1C(=O)NC1CCCCC1
